This note sets out measurements from PubChem BioAssay (NCI).

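Briefly, cells in 96-well plates were exposed to five compound concentrations for 48 h, and endpoints were estimated by linear interpolation. TGI: concentration producing complete growth inhibition.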

Test systems include SNB-75 CNS; RPMI-8226 leukemia; A498 renal; NCI/ADR-RES ovarian; SF-268 CNS; MALME-3M melanoma; UACC-257 melanoma; CAKI-1 renal; SK-MEL-28 melanoma; COLO 205 colon; HS 578T breast; NCI-H226 lung; U251 CNS; HT29 colon; SN12C renal; NCI-H460 lung; UACC-62 melanoma; SNB-19 CNS; HOP-62 NSCLC; MOLT-4 leukemia.
Holding throughout (assay): growth of human tumour cells (NCI), 48 h

Regarding `Cn1ccc(C(=O)N2CCSC2=S)c(OCc2ccccc2)c1=O`, the TGI in the assay on SNB-75 CNS, in the assay on RPMI-8226 leukemia, in the assay on A498 renal, with NCI/ADR-RES ovarian, in the assay on SF-268 CNS and in the assay on MALME-3M melanoma was more than 100 µM throughout. The TGI in the assay with UACC-257 melanoma, in the assay with CAKI-1 renal, in the assay on SK-MEL-28 melanoma, with COLO 205 colon, with HS 578T breast and in the assay on NCI-H226 lung was more than 100 µM each time. In addition, the TGI with U251 CNS, in the assay with HT29 colon, in the assay on SN12C renal, in the assay on NCI-H460 lung, with UACC-62 melanoma and with SNB-19 CNS was more than 100 µM each time.

Consider `CC(=O)N1CN2C(=O)CCC2c2ccccc21` (stereo unspecified), for which the TGI in the assay with SNB-75 CNS, with HOP-62 NSCLC, with RPMI-8226 leukemia, in the assay on A498 renal, in the assay on NCI/ADR-RES ovarian and with SF-268 CNS was more than 100 µM each time. Besides, the TGI in the assay on MALME-3M melanoma, in the assay with UACC-257 melanoma, in the assay with CAKI-1 renal, with SK-MEL-28 melanoma, in the assay with COLO 205 colon and in the assay on HS 578T breast was more than 100 µM throughout. Further, the TGI in the assay with NCI-H226 lung, in the assay on MOLT-4 leukemia, in the assay with U251 CNS, in the assay on HT29 colon, in the assay on SN12C renal and in the assay on NCI-H460 lung was more than 100 µM in each case. The TGI in the assay with UACC-62 melanoma and in the assay on SNB-19 CNS was more than 100 µM in each case.

Regarding `O=C(Nc1nc(C23CC4CC(CC(C4)C2)C3)cs1)c1c(O)c2ccccc2[nH]c1=O`, the TGI with HOP-62 NSCLC, with RPMI-8226 leukemia, in the assay with A498 renal, with NCI/ADR-RES ovarian, in the assay on SF-268 CNS and in the assay on MALME-3M melanoma was more than 100 µM throughout. Moreover, the TGI in the assay on UACC-257 melanoma, in the assay on CAKI-1 renal, in the assay on SK-MEL-28 melanoma, in the assay with COLO 205 colon, with HS 578T breast and with NCI-H226 lung was more than 100 µM each time. The TGI with MOLT-4 leukemia, with U251 CNS, in the assay with HT29 colon, in the assay on SN12C renal, with NCI-H460 lung and in the assay on SNB-19 CNS was more than 100 µM each time.

Turning to `CC(C)c1nc2cc(C(F)(F)F)ccc2[nH]c1=O`, the TGI in the assay with SNB-75 CNS, in the assay with HOP-62 NSCLC, with RPMI-8226 leukemia, with A498 renal, in the assay on NCI/ADR-RES ovarian and in the assay on SF-268 CNS was more than 100 µM each time. In addition, the TGI is more than 100 µM with MALME-3M melanoma; more than 100 µM with UACC-257 melanoma; more than 100 µM in the assay on CAKI-1 renal; more than 100 µM in the assay with SK-MEL-28 melanoma; more than 100 µM in the assay on COLO 205 colon; 54.5 µM in the assay on HS 578T breast. Besides, the TGI in the assay on NCI-H226 lung, in the assay with MOLT-4 leukemia, in the assay on U251 CNS, in the assay on HT29 colon, in the assay on SN12C renal and in the assay with NCI-H460 lung was more than 100 µM throughout. Besides, the TGI in the assay with UACC-62 melanoma and with SNB-19 CNS was more than 100 µM each time.

On to `Cc1nc2ccc(Cl)cc2c2c1CCS2`, for which the TGI was more than 100 µM in the assay with HOP-62 NSCLC; 71.4 µM in the assay with RPMI-8226 leukemia; 99.2 µM in the assay with A498 renal; more than 100 µM in the assay on NCI/ADR-RES ovarian; more than 100 µM in the assay on SF-268 CNS; more than 100 µM with MALME-3M melanoma. In addition, the TGI in the assay on UACC-257 melanoma, in the assay on CAKI-1 renal, in the assay with SK-MEL-28 melanoma, with COLO 205 colon, in the assay on HS 578T breast and in the assay with NCI-H226 lung was more than 100 µM each time. The TGI in the assay on MOLT-4 leukemia was 74.3 µM; with U251 CNS, more than 100 µM; with HT29 colon, more than 100 µM; in the assay with SN12C renal, more than 100 µM; in the assay with NCI-H460 lung, more than 100 µM; with UACC-62 melanoma, more than 100 µM. Also, in the assay with SNB-19 CNS, the TGI is more than 100 µM.

Take `COC(=O)[C@@H]1C=C[C@H](OC2OC(COC(C)=O)C(OC(C)=O)C(OC(C)=O)C2OC(C)=O)n2c(=O)c3ccccc3c(=O)n21` (stereo partly specified): the TGI in the assay on SNB-75 CNS turned out to be 20.6 µM; with HOP-62 NSCLC it was 36.3 µM; in the assay on RPMI-8226 leukemia, 35.6 µM; in the assay with A498 renal, 32.6 µM; in the assay with NCI/ADR-RES ovarian, 56.7 µM; in the assay on MALME-3M melanoma, 39.6 µM. Moreover, the TGI came to 51.2 µM in the assay with UACC-257 melanoma; 13 µM in the assay on CAKI-1 renal; 27.8 µM with SK-MEL-28 melanoma; 22.4 µM with COLO 205 colon; 76.2 µM in the assay on HS 578T breast; 46.3 µM in the assay on NCI-H226 lung. The TGI turned out to be 41.1 µM in the assay with MOLT-4 leukemia; 25.1 µM with U251 CNS; 60.9 µM with HT29 colon; 29 µM in the assay with NCI-H460 lung; 23 µM with UACC-62 melanoma; 47.2 µM in the assay on SNB-19 CNS.

Turning to `O=S(=O)(O)CCCC1S(=O)(=O)OCCOS1(=O)=O`, the TGI in the assay with SNB-75 CNS, with HOP-62 NSCLC, in the assay with RPMI-8226 leukemia, in the assay with A498 renal, in the assay with NCI/ADR-RES ovarian and in the assay with SF-268 CNS was more than 100 µM in each case. Further, the TGI in the assay on MALME-3M melanoma, in the assay with UACC-257 melanoma, in the assay with CAKI-1 renal, in the assay on SK-MEL-28 melanoma, in the assay with COLO 205 colon and in the assay with HS 578T breast was more than 100 µM each time. In addition, the TGI in the assay with NCI-H226 lung, in the assay with U251 CNS, with HT29 colon, in the assay on NCI-H460 lung, in the assay with UACC-62 melanoma and with SNB-19 CNS was more than 100 µM each time.
